According to the supplement of paper PMC10307832:

Tests used:
Experiment in all cases: relative viability (nuclei count vs DMSO), 5 days (fraction); higher = more cells survive
[1] = compound: C/C(=N\NC(=S)N1CCC1)/C2=CC=CC=N2 + CS(=O)(=O)CCNCc1ccc(-c2ccc3ncnc(Nc4ccc(OCc5cccc(F)c5)c(Cl)c4)c3c2)o1 [Lapatinib] (partner 2 µM)
Outline: (§1)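 Lung cancer cell lines were seeded in 1536-well plates and dosed by pin tool the next day, with either a single drug or a fixed anchor-drug dose combined with five library-drug doses (not always all listed) spaced in √10 steps. Five days later, one step fixed the cells and stained their nuclei (final 0.05% Triton X-100, 1% formaldehyde, 1 ug/ml Hoechst), and nuclei were counted on 4× images. Relative viability is the nuclei count in treated wells divided by the count in vehicle wells, and each value is the median of duplicate plates.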

[2] = compound: C/C(=N\NC(=S)N1CCC1)/C2=CC=CC=N2 + C[C@@H](Oc1cc(-c2cnn(C3CCNCC3)c2)cnc1N)c1c(Cl)ccc(F)c1Cl [Crizotinib] (partner 1 µM)
Outline: as §1

[3] = compound: C/C(=N\NC(=S)N1CCC1)/C2=CC=CC=N2 + Cc1nc(Nc2ncc(C(=O)Nc3c(C)cccc3Cl)s2)cc(N2CCN(CCO)CC2)n1 [Dasatinib] (partner 0.075 µM)
Outline: as §1

[4] = compound: C/C(=N\NC(=S)N1CCC1)/C2=CC=CC=N2 + Nc1nc2[nH]cc(CCc3ccc(C(=O)N[C@@H](CCC(=O)O)C(=O)O)cc3)c2c(=O)[nH]1 [Pemetrexed] (partner 0.2 µM)
Outline: as §1

Cell Line | relative viability ([1]; first compound 0.05 µM) | relative viability ([1]; first compound 0.1581 µM) | relative viability ([1]; first compound 0.5 µM) | relative viability ([1]; first compound 1.581 µM) | relative viability ([1]; first compound 5 µM) | relative viability ([2]; first compound 0.05 µM) | relative viability ([2]; first compound 0.1581 µM) | relative viability ([2]; first compound 0.5 µM) | relative viability ([2]; first compound 1.581 µM) | relative viability ([2]; first compound 5 µM) | relative viability ([3]; first compound 0.05 µM) | relative viability ([3]; first compound 0.1581 µM) | relative viability ([3]; first compound 0.5 µM) | relative viability ([3]; first compound 1.581 µM) | relative viability ([3]; first compound 5 µM) | relative viability ([4]; first compound 0.05 µM) | relative viability ([4]; first compound 0.1581 µM) | relative viability ([4]; first compound 0.5 µM) | relative viability ([4]; first compound 1.581 µM) | relative viability ([4]; first compound 5 µM)
HCC-366 | 0.0217 | 0.0257 | 0.0157 | 0.0217 | 0.0218 | 0.0857 | 0.0157 | 0.0133 | 0.0162 | 0.018 | 0.0305 | 0.0271 | 0.0302 | 0.0382 | 0.031 | 0.0318 | 0.0443 | 0.0286 | 0.0295 | 0.0319
HOP-62 | 0.0752 | 0.0868 | 0.0479 | 0.0716 | 0.0698 | 0.218 | 0.626 | 0.0574 | 0.0819 | 0.0635 | 0.0752 | 0.0748 | 0.0769 | 0.0912 | 0.0784 | 0.0662 | 0.0706 | 0.0806 | 0.128 | 0.0892
NCI-H1944 | 0.194 | 0.317 | 0.207 | 0.144 | 0.163 | 0.737 | 0.909 | 0.221 | 0.164 | 0.149 | 0.139 | 0.151 | 0.153 | 0.128 | 0.127 | 0.212 | 0.15 | 0.133 | 0.112 | 0.124
SW 1573 | 0.164 | 0.17 | 0.182 | 0.118 | 0.109 | 0.11 | 0.123 | 0.138 | 0.102 | 0.0709 | 0.0654 | 0.0445 | 0.0863 | 0.0351 | 0.0432 | 0.0863 | 0.149 | 0.169 | 0.0609 | 0.0817
LU99A | 0.153 | 0.132 | 0.136 | 0.128 | 0.172 | 0.23 | 0.0986 | 0.168 | 0.133 | 0.143 | 0.131 | 0.16 | 0.114 | 0.106 | 0.155 | 0.192 | 0.158 | 0.164 | 0.146 | 0.162
NCI-H647 | 0.139 | 0.0972 | 0.11 | 0.0821 | 0.0828 | 0.202 | 0.122 | 0.162 | 0.096 | 0.104 | 0.0543 | 0.0651 | 0.0453 | 0.051 | 0.0532 | 0.136 | 0.111 | 0.114 | 0.0953 | 0.0773
A-427 | 0.138 | 0.149 | 0.138 | 0.115 | 0.139 | 0.267 | 0.445 | 0.0997 | 0.0835 | 0.129 | 0.144 | 0.124 | 0.132 | 0.0986 | 0.117 | 0.191 | 0.209 | 0.195 | 0.151 | 0.188
COR-L 105 | 0.375 | 0.342 | 0.375 | 0.314 | 0.286 | 0.231 | 0.252 | 0.224 | 0.205 | 0.256 | 0.178 | 0.254 | 0.243 | 0.176 | 0.185 | 0.399 | 0.389 | 0.326 | 0.358 | 0.335
NCI-H2126 | 0.242 | 0.272 | 0.249 | 0.236 | 0.241 | 0.671 | 1.01 | 0.226 | 0.187 | 0.146 | 0.185 | 0.18 | 0.179 | 0.163 | 0.187 | 0.235 | 0.221 | 0.212 | 0.219 | 0.208
NCI-H460 | 0.0117 | 0.0152 | 0.017 | 0.015 | 0.0086 | 0.0177 | 0.0116 | 0.014 | 0.0184 | 0.0064 | 0.0259 | 0.0347 | 0.0269 | 0.0294 | 0.0151 | 0.0583 | 0.0469 | 0.0644 | 0.0399 | 0.014
SK-LU-1 | 0.301 | 0.149 | 0.14 | 0.142 | 0.204 | 0.277 | 0.191 | 0.203 | 0.19 | 0.208 | 0.123 | 0.139 | 0.145 | 0.0978 | 0.114 | 0.293 | 0.28 | 0.282 | 0.187 | 0.246
NCI-H322M | 0.258 | 0.281 | 0.222 | 0.243 | 0.301 | 0.312 | 0.988 | 0.213 | 0.247 | 0.254 | 0.183 | 0.309 | 0.263 | 0.247 | 0.282 | 0.327 | 0.391 | 0.556 | 0.327 | 0.404
EKVX | 0.108 | 0.137 | 0.119 | 0.153 | 0.131 | 0.142 | 0.159 | 0.121 | 0.137 | 0.159 | 0.186 | 0.174 | 0.164 | 0.172 | 0.192 | 0.148 | 0.163 | 0.0961 | 0.166 | 0.175
NCI-H1734 | 0.162 | 0.141 | 0.15 | 0.115 | 0.12 | 0.202 | 0.175 | 0.156 | 0.118 | 0.121 | 0.152 | 0.12 | 0.148 | 0.112 | 0.089 | 0.17 | 0.166 | 0.188 | 0.152 | 0.135
NCI-H520 | 0.131 | 0.148 | 0.12 | 0.12 | 0.144 | 0.0874 | 0.112 | 0.123 | 0.104 | 0.116 | 0.175 | 0.117 | 0.162 | 0.178 | 0.166 | 0.128 | 0.16 | 0.145 | 0.122 | 0.146
EPLC-272H | 0.139 | 0.195 | 0.229 | 0.155 | 0.161 | 0.0969 | 0.187 | 0.121 | 0.126 | 0.171 | 0.086 | 0.079 | 0.117 | 0.0523 | 0.0578 | 0.165 | 0.179 | 0.149 | 0.0756 | 0.265
